Consider two molecules from patent EP2805715A1, “Inhibitors of RNR2 subunit of ribonucleotide reductase to impair reverse transcription of hiv related lentiviruses in macrophages and use thereof for the treatment of hiv infected patients” (INSTITUT PASTEUR, priority 2013, dated 2014).

Each structure is given as a SMILES string. Counter-ions that a name gives are not always drawn. Like-named read-outs stand apart in the source and are kept apart here.

For one series, the system named is HIV-1/VSV-G. Type of series: cell-based.
For the next series, the system named is MDM. Briefly: MDM viability. The class given is cell-based, human.

In the case of `CC(=O)N(O)CCCCCNC(=O)CCC(=O)N(O)CCCCCNC(=O)CCC(=O)N(O)CCCCCN` [DFO, Deferoxamine mesylate], in the series on HIV-1/VSV-G, the “HIV-1 replication, fold changes of luciferase activity with respect to mock treated cells” value is recorded as “Dose dependent inhibition”. Also, the MDM viability entry with MDM is recorded as “not affected”.
For `NC(=O)NO` [HU, Hydroxyurea], in the series on HIV-1/VSV-G, the “HIV-1 replication, fold changes of luciferase activity with respect to mock treated cells” value is recorded as “Dose dependent inhibition”. In the series with MDM (at the concentrations used in the assays (data not shown)), the MDM viability result was “not affected”.
